Legend:
Format in all cases: in vivo
Myzus persicae = experiment: Green peach aphid (Myzus persicae), mixed life stages, systemic test via artificial diet under membrane; settings: 72 h, read-out: mortality in comparison with untreated controls
Source text: For evaluating control of Green Peach Aphid through systemic means the test unit consisted of 96-well-microtiter plates containing liquid artificial diet under an artificial membrane. The compounds were formulated using a solution containing 75% v/v water and 25% v/v DMSO. Different concentrations of formulated compounds were pipetted into the aphid diet, using a custom-built pipette, at two replications. After application, 5 - 8 adult aphids were placed on the artificial membrane inside the microtiter plate wells. The aphids were then allowed to suck on the treated aphid diet and incubated at about 23 ± 1°C and about 50 ± 5 % relative humidity for 3 days. Aphid mortality and fecundity was then visually assessed.

Plutella xylostella = experiment: Diamond back moth (Plutella xylostella) control, 96-well microtiter plate insect diet with eggs; settings: 120 h, read-out: mortality in comparison with untreated controls
Method: For evaluating control of […] (Plutella xylostella) the test unit consisted of 96-well-microtiter plates containing an insect diet and 15-25 P. xylostella eggs.
The compounds or mixtures were formulated using a solution containing 75% water and 25% DMSO. Different concentrations of formulated compounds or mixtures were sprayed onto the insect diet at 5µl, using a custom-built micro atomizer, at two replications.
After application, microtiter plates were incubated at 28 ± 1°C, 80 ± 5 % RH for 5 days. Egg and larval mortality was then visually assessed.

Heliothis virescens = experiment: Tobacco budworm (Heliothis virescens) control, 96-well microtiter plate insect diet with eggs; settings: 120 h, read-out: mortality in comparison with untreated controls
Method: For evaluating control of Tobacco Budworm, the test unit consisted of 96-well-microtiter plates containing an insect diet and 15-25 H. virescens eggs. The compounds were formulated using a solution containing 75% v/v water and 25% v/v DMSO. Different concentrations of formulated compounds were sprayed onto the insect diet at 10µl, using a custom-built micro atomizer, at two replications. After application, microtiter plates were incubated at about 28 ± 1°C and about 80 ± 5 % relative humidity for 5 days. Egg and larval mortality was then visually assessed.

Aedes aegypti = experiment: whole plant or invertebrate; settings: 48 h, larval mortality, 2 days, read-out: mortality in comparison with untreated controls
Method: For evaluating control of Yellow Fever Mosquito, the test unit consisted of 96-well-microtiter plates containing 200µl of tap water per well and 5-15 freshly hatched A. aegypti larvae. The active compounds were formulated using a solution containing 75% (v/v) water and 25% (v/v) DMSO. Different concentrations of formulated compounds or mixtures were sprayed onto the insect diet at 2.5µl, using a custom-built micro atomizer, at two replications.
After application, microtiter plates were incubated at 28 ± 1°C, 80 ± 5 % RH for 2 days. Larval mortality was then visually assessed.

Anthonomus grandis = experiment: Boll weevil (Anthonomus grandis) control, 96-well microtiter plate insect diet with eggs; settings: 120 h, read-out: mortality in comparison with untreated controls
Method: For evaluating control of boll weevil, the test unit consisted of 96-well-microtiter plates containing an insect diet and 5-10 A. grandis eggs.
The compounds were formulated using a solution containing 75% v/v water and 25% v/v DMSO. Different concentrations of formulated compounds were sprayed onto the insect diet at 5µl, using a custom-built micro atomizer, at two replications.
After application, microtiter plates were incubated at about 25 ± 1°C and about 75 ± 5 % relative humidity for 5 days. Egg and larval mortality were then visually assessed.

Measured: mortality at 800 ppm

O=C(N[C@H]1CCc2ccc(NC3=NOC(c4ccc(F)c(Cl)c4)(C(F)(F)F)C3)cc21)C1CC1 (stereo partly drawn) [III-1]
≥ 75%: Myzus persicae | Plutella xylostella | Heliothis virescens | Aedes aegypti | Anthonomus grandis

CCN(C1=NOC(c2cc(Cl)c(F)c(Cl)c2)(C(F)(F)F)C1)c1ccc(F)c(CNC(=O)C2CC2)c1 (stereo not drawn) [I-15]
≥ 75%: Myzus persicae | Plutella xylostella | Heliothis virescens | Aedes aegypti | Anthonomus grandis

CCOC(=O)N(C1=NOC(c2cc(Cl)c(F)c(Cl)c2)(C(F)(F)F)C1)c1ccc(F)c(CNC(=O)C2CC2)c1 (stereo not drawn) [I-42]
≥ 75%: Myzus persicae | Plutella xylostella | Heliothis virescens | Aedes aegypti | Anthonomus grandis

N#CC1(C(=O)NCc2cc(NC3=NOC(c4ccc(F)c(Cl)c4)(C(F)(F)F)C3)ccc2Cl)CC1 (stereo not drawn) [I-32]
≥ 75%: Myzus persicae | Plutella xylostella | Heliothis virescens | Aedes aegypti | Anthonomus grandis

CC(C)C(=O)NCc1cc(NC2=NOC(c3ccc(F)c(Cl)c3)(C(F)(F)F)C2)ccc1Cl (stereo not drawn) [I-25]
≥ 75%: Myzus persicae | Plutella xylostella | Heliothis virescens | Aedes aegypti | Anthonomus grandis

Cc1ccc(NC2=NOC(c3cc(Cl)c(F)c(Cl)c3)(C(F)(F)F)C2)cc1CNC(=O)C1CC1 (stereo not drawn) [I-20]
≥ 75%: Myzus persicae | Plutella xylostella | Heliothis virescens | Aedes aegypti | Anthonomus grandis

From patent publication EP4342885A1, “N-(3-(AMINOMETHYL)-PHENYL)-5-(4-PHENYL)-5-(TRIFLUOROMETHYL)-4,5-DIHYDROISOXAZOL-3-AMINE DERIVATIVES AND SIMILAR COMPOUNDS AS PESTICIDES” (priority 2022, dated 2024)
